From patent EP4238971A1, “SUBSTITUTED ISOXAZOLINE DERIVATIVES” (BASF SE, priority 2022, dated 2023)

Columns and labels:
Type in all cases: in vivo
Dichromothrips corbetti = assay: Orchid thrips (Dichromothrips corbetti), floral-immersion technique; settings: 300ppm; adult thrips; mortality recorded 72 hours after treatment
Protocol: B.6. Orchid thrips (Dichromothrips corbetti)
Dichromothrips corbetti adults used for bioassay were obtained from a colony maintained continuously under laboratory conditions. For testing purposes, the test compound was diluted in a 1:1 mixture of acetone:water (vol:vol), plus Kinetic at a rate of 0.01% v/v.
Thrips potency of each compound was evaluated by using a floral-immersion technique. Each orchid petal was dipped into treatment solution and allowed to dry in Petri dishes. Treated petals were placed into individual re-sealable plastic along with about 20 adult thrips. All test arenas were held under dark condition and a temperature of about 28°C for duration of the assay. The percent mortality was recorded 72 hours after treatment.

Anthonomus grandis = assay: Boll weevil (Anthonomus grandis) control, insect diet in 96-well microtiter plates; settings: 2500ppm; egg and larval mortality visually assessed after 5 days
Protocol: (§1) If not otherwise specified, the test solutions were prepared as follows: The active compound was dissolved at the desired concentration in a mixture of 1:1 (vol:vol) distilled water:acetone. The test solution was prepared at the day of use.
(§2) Test solutions were prepared in general at a concentration of 2500ppm (wt/vol).
B.1. Boll weevil (Anthonomus grandis)
For evaluating control of boll weevil, the test unit consisted of 96-well-microtiter plates containing an insect diet and 5-10 A. grandis eggs.
The compounds were formulated using a solution containing 75% v/v water and 25% v/v DMSO. Different concentrations of formulated compounds were sprayed onto the insect diet at 5µl, using a custom-built micro atomizer, at two replications.
After application, microtiter plates were incubated at about 25 ± 1°C and about 75 ± 5 % relative humidity for 5 days. Egg and larval mortality were then visually assessed.

Spodoptera eridania = assay: Southern armyworm (Spodoptera eridania), 2nd instar larvae, sprayed lima bean plants; settings: 300ppm; 2nd instar larvae; assessed 4 days after treatment
Protocol: B.7. Southern armyworm (Spodoptera eridania), 2nd instar larvae
The active compounds were formulated by a Tecan liquid handler in 100% cyclohexanone as a 10'000 ppm solution supplied in tubes. The 10'000 ppm solution was serially diluted in 100% cyclohexanone to make interim solutions. These served as stock solutions for which final dilutions were made by the Tecan in 50% acetone:50% water (v/v) into 10 or 20ml glass vials. A nonionic surfactant (Kinetic®) was included in the solution at a volume of 0.01% (v/v). The vials were then inserted into an automated electrostatic sprayer equipped with an atomizing nozzle for application to plants/insects. Lima bean plants (variety Sieva) were grown 2 plants to a pot and selected for treatment at the 1st true leaf stage. Test solutions were sprayed onto the foliage by an automated electrostatic plant sprayer equipped with an atomizing spray nozzle. The plants were dried in the sprayer fume hood and then removed from the sprayer. Each pot was placed into perforated plastic bags with a zip closure. Ten to 11 armyworm larvae were placed into the bag and the bags zipped closed. Test plants were maintained in a growth room at about 25°C and about 20-40% relative humidity for 4 days, avoiding direct exposure to fluorescent light (14:10 light:dark photo-period) to prevent trapping of heat inside the bags. Mortality and reduced feeding were assessed 4 days after treatment, compared to untreated control plants.

Heliothis virescens = assay: Tobacco budworm (Heliothis virescens) control, insect diet in 96-well microtiter plates; settings: 2500ppm; egg and larval mortality visually assessed after 5 days
Protocol: as §1, §2
B.3. Tobacco budworm (Heliothis virescens)
For evaluating control of Tobacco Budworm, the test unit consisted of 96-well-microtiter plates containing an insect diet and 15-25 H. virescens eggs. The compounds were formulated using a solution containing 75% v/v water and 25% v/v DMSO. Different concentrations of formulated compounds were sprayed onto the insect diet at 10µl, using a custom-built micro atomizer, at two replications. After application, microtiter plates were incubated at about 28 ± 1°C and about 80 ± 5 % relative humidity for 5 days. Egg and larval mortality was then visually assessed.

Myzus persicae = assay: Green peach aphid (Myzus persicae), mixed life stages, systemic test via artificial diet under membrane; settings: 2500ppm; aphid mortality visually assessed after 3 days
Protocol: as §1, §2
B.2. Green peach aphid (Myzus persicae) (mixed life stages)
For evaluating control of Green Peach Aphid through systemic means the test unit consisted of 96-well-microtiter plates containing liquid artificial diet under an artificial membrane. The compounds were formulated using a solution containing 75% v/v water and 25% v/v DMSO. Different concentrations of formulated compounds were pipetted into the aphid diet, using a custom-built pipette, at two replications. After application, 5 - 8 adult aphids were placed on the artificial membrane inside the microtiter plate wells. The aphids were then allowed to suck on the treated aphid diet and incubated at about 23 ± 1°C and about 50 ± 5 % relative humidity for 3 days. Aphid mortality and fecundity was then visually assessed.

Aedes aegypti = assay: whole plant or invertebrate; settings: 2500ppm; larval mortality visually assessed after 2 days
Protocol: as §1, §2
B.4. Yellow fever mosquito (Aedes aegypti)
For evaluating control of Yellow Fever Mosquito, the test unit consisted of 96-well-microtiter plates containing 200µl of tap water per well and 5-15 freshly hatched A. aegypti larvae. The active compounds were formulated using a solution containing 75% (v/v) water and 25% (v/v) DMSO. Different concentrations of formulated compounds or mixtures were sprayed onto the insect diet at 2.5µl, using a custom-built micro atomizer, at two replications.
After application, microtiter plates were incubated at 28 ± 1°C, 80 ± 5 % RH for 2 days. Larval mortality was then visually assessed.

Plutella xylostella = assay: Diamond back moth (Plutella xylostella), cabbage leaf disc dip test; settings: 300ppm; 3rd instar larvae; mortality recorded 72 hours after treatment
Protocol: B.5. Diamond back moth (Plutella xylostella)
The active compound was dissolved at the desired concentration in a mixture of 1:1 (vol:vol) distilled water: acetone. Surfactant (Kinetic) was added at a rate of 0.01% (vol/vol). The test solution was prepared at the day of use. Cabbage leaf discs (60mm in diameter) were dipped in test solution and air-dried. Treated leaves were placed in petri dishes lined with moistened filter paper and inoculated with ten 3rd instar larvae. Mortality was recorded 72 hours after treatment. Feeding damages were also recorded using a scale of 0-100%.

Bemisia argentifolii = assay: Silverleaf whitefly (Bemisia argentifolii) adults, sprayed cotton plants; settings: 300 ppm; adults; assessed 3 days after treatment
Protocol: B.8. Silverleaf whitefly (Bemisia argentifolii) (adults)
The active compounds were formulated by a Tecan liquid handler in 100% cyclohexanone as a 10,000-ppm solution supplied in tubes. The 10,000-ppm solution was serially diluted in 100% cyclohexanone to make interim solutions. These served as stock solutions for which final dilutions were made by the Tecan in 50% acetone:50% water (v/v) into 5 or 10ml glass vials. A nonionic surfactant (Kinetic®) was included in the solution at a volume of 0.01% (v/v). The vials were then inserted into an automated electrostatic sprayer equipped with an atomizing nozzle for application to plants/insects. Cotton plants at the cotyledon stage (one plant per pot) were sprayed by an automated electrostatic plant sprayer equipped with an atomizing spray nozzle. The plants were dried in the sprayer fume hood and then removed from the sprayer. Each pot was placed into a plastic cup and about 10 to 12 whitefly adults (approximately 3-5 days old) were introduced. The insects were collected using an aspirator and a nontoxic Tygon® tubing connected to a barrier pipette tip. The tip, containing the collected insects, was then gently inserted into the soil containing the treated plant, allowing insects to crawl out of the tip to reach the foliage for feeding. Cups were covered with a reusable screened lid. Test plants were maintained in a growth room at about 25°C and about 20-40% relative humidity for 3 days, avoiding direct exposure to fluorescent light (14:10 light:dark photoperiod) to prevent trapping of heat inside the cup. Mortality was assessed 3 days after treatment, compared to untreated control plants.

Measured: mortality in comparison with untreated controls

CN(C1=NOC(c2cc(Cl)cc(Cl)c2)(C(F)(F)F)C1)c1ccc(C#N)c(-n2cncn2)c1 (stereo not shown) [I-7]
not listed: Bemisia argentifolii
at least 75%: all other assays above

N#Cc1ccc(NC2=NOC(c3ccc(F)c(C(F)(F)F)c3)(C(F)(F)F)C2)cc1-n1cncn1 (stereo not shown) [I-8]
at least 75%: Dichromothrips corbetti | Bemisia argentifolii | Spodoptera eridania | Plutella xylostella

CN(C1=NOC(c2ccc(F)c(Cl)c2)(C(F)(F)F)C1)c1ccc(C#N)c(-n2cncn2)c1 (stereo not shown) [I-9]
not listed: Bemisia argentifolii
at least 75%: all other assays above

CCN(C1=NOC(c2ccc(F)c(Cl)c2)(C(F)(F)F)C1)c1ccc(C#N)c(-n2cncn2)c1 (stereo not shown) [I-10]
not listed: Bemisia argentifolii
at least 75%: all other assays above

N#Cc1ccc(N(CC2CC2)C2=NOC(c3ccc(F)c(Cl)c3)(C(F)(F)F)C2)cc1-n1cncn1 (stereo not shown) [I-11]
not listed: Bemisia argentifolii
at least 75%: all other assays above

C#CCN(C1=NOC(c2ccc(F)c(Cl)c2)(C(F)(F)F)C1)c1ccc(C#N)c(-n2cncn2)c1 (stereo not shown) [I-12]
not listed: Bemisia argentifolii
at least 75%: all other assays above

Fc1c(Cl)cc(C2(C(F)(F)F)CC(Nc3ccc(Cl)c(-n4cncn4)c3)=NO2)cc1Cl (stereo not shown) [I-13]
not listed: Dichromothrips corbetti
at least 75%: all other assays above

Fc1c(Cl)cc(C2(C(F)(F)F)CC(Nc3ccc(Cl)c(-n4ccc(C(F)(F)F)n4)c3)=NO2)cc1Cl (stereo not shown) [I-15]
at least 75%: Dichromothrips corbetti | Bemisia argentifolii | Spodoptera eridania | Heliothis virescens | Aedes aegypti

CCN(C1=NOC(c2cc(Cl)c(F)c(Cl)c2)(C(F)(F)F)C1)c1ccc(Cl)c(-n2cncn2)c1 (stereo not shown) [I-19]
not listed: Bemisia argentifolii
at least 75%: all other assays above

CCOC(=O)N(C1=NOC(c2cc(Cl)c(F)c(Cl)c2)(C(F)(F)F)C1)c1ccc(Cl)c(-n2cncn2)c1 (stereo not shown) [I-25]
not listed: Anthonomus grandis | Myzus persicae
at least 75%: all other assays above
